Laboratory results from patent US8158621B2, “Methods of treating or preventing autoimmune diseases with 2,4-pyrimidinediamine compounds” (Rigel Pharmaceuticals, Inc., priority 2002, dated 2012).
Read-outs that look alike come from different tables or passages of the source. Each block holds one molecule with its values, some of them ahead of it.

Assays:
Type in all cases: cell-based
[1] = tested on: cultured human mast cells (CHMC); assay: CHMC low cell density IgE activation: tryptase assay
Protocol: Pellet CHMC cells (980 rpm, 10 min) and resuspend in pre-warmed MT. Add 65 ul of cells to each 96-well plate. Depending on the degranulation activity for each particular CHMC donor, load 1000-1500 cells/well. Mix four times followed by a 1 hr incubation at 37° C. […] Stimulate cells by adding 25 ul of 6× anti-IgE solution to the appropriate plates. Add 25 ul MT to un-stimulated control wells. Mix twice following addition of the anti-IgE. Incubate at 37° C. for 30 minutes. […] Spin plates at 1000 rpm for 10 min to pellet cells. Transfer 25 ul of supernatant to a 96-well black bottom plate and add 100 ul of freshly diluted tryptase substrate solution to each well. Incubate plates at room temperature for 30 min.

[2] = tested on: cultured human mast cells (CHMC); assay: CHMC low cell density ionomycin activation: tryptase assay; conditions: read-out: CHMC Ionomycin Tryptase
[3] = tested on: Human Jurkat T-cells (clone N); assay: Jurkat T-cell activation (anti-TCR, CD69 upregulation)
In short: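 Readout is CD69 upregulation by flow cytometry (anti-CD69-APC, 20 min at 4 °C) after 20 h anti-TCR (C305, 500 ng/ml) stimulation at 37 °C.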

[4] = low cell density, read-out: CHMC anti-IgE Tryptase
[5] = Homo sapiens, Mast cell, Low Density, read-out: CHMC anti-IgE Tryptase
[6] = Homo sapiens, Mast cell, Low Density CHMC, anti-IgE activation, tryptase release, read-out: CHMC anti-IgE Tryptase IC50

SMILES: CC(C)[C@@H]1CC[C@@H](C)C[C@H]1OC(=O)[C@H]1Cc2cc(Nc3ncc(F)c(Nc4ccc5c(c4)NC(=O)C(F)(F)O5)n3)ccc2O1 [Compound R927063]
IC50 [1, 4]: 849 nM
IC50 ([2]; low cell density): > 10000 nM

SMILES: COc1ccc(Nc2nc(Nc3cccc(OCC(=O)NC4CCC4)c3)ncc2F)cc1Cl [Compound R926969]
IC50 [1, 4]: 359 nM
IC50 ([2]; low cell density): > 10000 nM

SMILES: CN(C)Cc1cc2cc(Nc3ncc(F)c(Nc4ccc(Cl)c(Cl)c4)n3)ccc2o1 [Compound R926980]
IC50 [1, 4]: 680 nM
IC50 ([2]; low cell density): 5490 nM

SMILES: Cc1cc(C)cc(Nc2ncc(F)c(Nc3ccc4c(c3)NC(=O)C(C)(C)O4)n2)c1 [Compound R927075]
IC50 ([2]; low cell density): 15200 nM

SMILES: Fc1cnc(Cl)nc1Nc1ccc(C(F)(F)F)cc1 [Compound R926876]
IC50 [1, 5]: > 10000 nM
IC50 ([3]; Homo sapiens, Jurkat): > 10000 nM

SMILES: COC1=CC=C(Nc2nc(Cl)ncc2F)CC1=CN(C(=O)OC(C)(C)C)C(C)C [Compound R940320]
IC50 [1, 5]: > 10000 nM
IC50 ([3]; Homo sapiens, Jurkat): 7820 nM

SMILES: COC(=O)c1cc(Nc2nc(Nc3ccc(OC(C)C)cc3)ncc2F)cn1C [Compound R935165]
IC50 ([2]; Low Density): > 10000 nM
IC50 [3]: > 10000 nM

SMILES: CNC(=O)COc1cccc(Nc2ncc(F)c(Nc3ccc(N(C)C(C)=O)cc3)n2)c1 [Compound R945377]
IC50 [1, 4]: 1120 nM

SMILES: O=C1COc2ccc(Nc3nc(Nc4cccc(Br)c4)ncc3F)nc2N1 [Compound R945455]
IC50 ([2]; low cell density): > 10000 nM

SMILES: COc1cc(Nc2nc(Nc3ccc4[nH]ncc4c3)ncc2F)ccc1F [Compound R935417]
IC50 [1, 4]: 417 nM

SMILES: CNC(=O)COc1cccc(Nc2ncc(F)c(Nc3ccc4c(c3)[C@H](N)CCO4)n2)c1 [Compound R950421]
IC50 ([2]; low cell density): > 10000 nM

SMILES: CN(C)C(=O)C1Cc2cc(Nc3ncc(F)c(Nc4ccc(OC(F)(F)F)c(Cl)c4)n3)ccc2O1 (stereo not shown) [Compound R927053]
IC50 [1, 4]: 671 nM

SMILES: NC1CCOc2ccc(Nc3ncc(F)c(Nc4ccc(Cl)c(Cl)c4)n3)cc21 (racemic) [Compound R950437]
IC50 [1, 4]: 811 nM

SMILES: Cn1ncc2ccc(Nc3ncc(F)c(Nc4ccc5c(c4)NC(C)(C)CO5)n3)cc21 [Compound R908592]
IC50 [1, 4]: 50 nM

SMILES: Fc1ccc(Nc2nc(Nc3ccc4[nH]ncc4c3)ncc2F)cc1Cl [Compound R935428]
IC50 [1, 4]: 1270 nM

SMILES: O=C1COc2ccc(Nc3nc(Nc4ccc(Oc5ccccc5)cc4)ncc3F)nc2N1 [Compound R945409]
IC50 [1, 4]: > 10000 nM

SMILES: Fc1cnc(Cl)nc1Nc1ccc(Cl)c(C(F)(F)F)c1 [Compound R926877]
IC50 [1, 5]: > 10000 nM
IC50 ([3]; Homo sapiens, Jurkat): > 10000 nM

SMILES: COc1ccc(Nc2nc(Nc3cc(C)cc(C)c3)ncc2F)cc1Cl [Compound R926991]
IC50 [1, 4]: 436 nM

SMILES: CC(=O)N1CCN(c2ccc(Nc3nc(NC4CC4)ncc3F)cc2)CC1 [Compound R945381]
IC50 [1, 4]: > 10000 nM

SMILES: C[C@@H]1Oc2ccc(Nc3nc(Nc4ccc(CN)cc4)ncc3F)cc2NC1=O [Compound R950461]
IC50 [1, 4]: 142 nM

SMILES: COc1ccc(Nc2nc(Nc3ccc4c(cnn4C)c3)ncc2F)cc1Cl [Compound R935458]
IC50 ([2]; low cell density): > 10000 nM

SMILES: CCN(CC)CCNC(=O)c1ccc(Nc2ncc(F)c(Nc3ccc4c(c3)NC(=O)[C@H](C)O4)n2)cc1 [Compound R950446]
IC50 [1, 4]: 148 nM

SMILES: Fc1cnc(Cl)nc1Nc1ccc(Cl)c(Cl)c1 [Compound R926884]
IC50 [1, 5]: > 10000 nM
IC50 ([3]; Homo sapiens, Jurkat): > 10000 nM

SMILES: CNC(=O)COc1cccc(Nc2ncc(F)c(Nc3ccc4c(c3)C(NC(=O)CN(C)C)CCO4)n2)c1 (racemic) [Compound R950416]
IC50 [1, 4]: 2270 nM

SMILES: NC(=O)c1ccc(Nc2ncc(F)c(Nc3ccc(Cl)c(Cl)c3)n2)cc1 [Compound R950451]
IC50 [1, 4]: 70 nM

SMILES: COc1cc(Nc2ncc(F)c(Nc3ccc4cnn(C)c4c3)n2)c(OC)cc1Cl [Compound R935421]
IC50 [1, 4]: 2890 nM

Continued, values first:

IC50 [1, 4]: 414 nM
IC50 ([2]; low cell density): 23000 nM
SMILES: CC1(C)Oc2ccc(Nc3ncc(F)c(Nc4ccc5[nH]ncc5c4)n3)cc2NC1=O [Compound R935438]

IC50 ([2]; low cell density): > 10000 nM
SMILES: CC1(C)C(=O)NC(=O)c2cc(Nc3nc(Nc4ccc(C(N)=O)cc4)ncc3F)ccc21 [Compound R950453]

IC50 [1, 4]: > 10000 nM
IC50 ([2]; low cell density): > 10000 nM
SMILES: O=C(N[C@H]1CCOc2ccc(Nc3nc(Cl)ncc3F)cc21)OCc1ccccc1 [Compound R950413]

IC50 [1, 5]: > 10000 nM
IC50 ([3]; Homo sapiens, Jurkat): > 10000 nM
SMILES: Fc1cnc(Cl)nc1Nc1ccc(OC(F)(F)F)cc1 [Compound R926875]

IC50 ([2]; low cell density): > 10000 nM
SMILES: COc1ccc(Nc2ncc(F)c(Nc3ccc4c(c3)NC(C)(C)CO4)n2)cc1Cl [Compound R908587]

IC50 [1, 4]: 286 nM
IC50 ([2]; low cell density): > 10000 nM
SMILES: Cc1cccc(C)c1Nc1ncc(F)c(Nc2ccc3c(c2)OCCO3)n1 [Compound R927086]

IC50 ([1]; Low Density, read-out: CHMC anti-IgE Tryptase): 1840 nM
IC50 [3]: 4280 nM
SMILES: CN1C=COc2ccc(Nc3nc(Nc4cccc(O)c4)ncc3F)cc21 [Compound R908710]

IC50 [1, 5]: > 10000 nM
IC50 ([3]; Homo sapiens, Jurkat): > 10000 nM
SMILES: COc1ccc(Nc2nc(Cl)ncc2F)cn1 [Compound R926878]

IC50 [1, 5]: > 10000 nM
IC50 ([3]; Homo sapiens, Jurkat): 5580 nM
SMILES: Cc1cccc(Nc2nc(Cl)ncc2F)n1 [Compound R926888]

IC50 [1, 5]: > 10000 nM
IC50 ([3]; Homo sapiens, Jurkat): 9050 nM
SMILES: Fc1ccc(Nc2nc(Cl)ncc2F)cc1F [Compound R926882]

IC50 ([2]; low cell density): > 10000 nM
SMILES: COc1cc(Nc2ncc(F)c(Nc3ccc4c(c3)NC(=O)[C@@H](C)O4)n2)cc(OC)c1 [Compound R908954]

IC50 ([2]; low cell density): > 10000 nM
SMILES: CNC(=O)COc1cccc(Nc2ncc(F)c(Nc3ccc4c(c3)NC(=O)C(C)(C(=O)NC)O4)n2)c1 (racemic) [Compound R940365]

IC50 [1, 6]: 174 nM
IC50 ([3]; Homo sapiens, Jurkat): 5020 nM
SMILES: O=C1COc2ccc(Nc3ncc(F)c(Nc4cccc(O)c4)n3)cc2N1 [Compound R909238]

IC50 [1, 6]: 2000 nM
IC50 ([3]; Homo sapiens, Jurkat): 1830 nM
SMILES: Oc1cccc(Nc2ncc(F)c(Nc3ccc4c(c3)OCCO4)n2)c1 [Compound R925796]

IC50 ([2]; Low Density): > 10000 nM
IC50 [3]: 1900 nM
SMILES: Cc1cc(Nc2nc(Nc3cccc(OCCN4CCOCC4)c3)ncc2F)cc(Cl)c1O [Compound R940269]

IC50 ([2]; low cell density): 9300 nM
SMILES: CC1(C)Oc2ccc(Nc3nc(Nc4ccc5cn[nH]c5c4)ncc3F)cc2NC1=O [Compound R935430]

IC50 [1, 4]: 1700 nM
SMILES: CNC(=O)COc1cccc(Nc2ncc(F)c(Nc3ccc(OC4CCC(N)CC4)c(Cl)c3)n2)c1 (mixture of isomers) [Compound R945403]

IC50 ([2]; low cell density): > 10000 nM
SMILES: Cc1cc(C)cc(Nc2ncc(F)c(Nc3ccc4c(c3)NC(C)(C)CO4)n2)c1 [Compound R908586]

IC50 [1, 4]: 632 nM
SMILES: NCc1ccc(Nc2ncc(F)c(Nc3ccc(Cl)c(Cl)c3)n2)cc1 [Compound R950459]

IC50 [1, 4]: 293 nM
SMILES: COc1c(Cl)cc(Nc2ncc(F)c(Nc3ccc4c(c3)C(=O)NC(=O)C4(C)C)n2)cc1Cl [Compound R908955]

IC50 [1, 4]: 2860 nM
SMILES: CCNC1CCC(Oc2ccc(Nc3nc(Nc4cccc(OCC(=O)NC)c4)ncc3F)cc2Cl)CC1 (mixture of isomers) [Compound R945411]

IC50 [1, 4]: > 10000 nM
SMILES: COc1c(C)cc(Nc2ncc(F)c(Nc3ccc4c(n3)NC(=O)C(C)(C)O4)n2)cc1C [Compound R940395]

IC50 [1, 5]: > 10000 nM
SMILES: Fc1cnc(Cl)nc1Nc1ccc(Cl)nc1 [Compound R920400]

IC50 [1, 4]: 291 nM
SMILES: CC1(C)Oc2ccc(Nc3ncc(F)c(Nc4ccc(Cl)c(Cl)c4)n3)cc2NC1=O [Compound R927059]

IC50 [1, 4]: 293 nM
SMILES: CNC(=O)COc1cccc(Nc2ncc(F)c(Nc3cc(C)c(OC)c(Cl)c3)n2)c1 [Compound R926974]

IC50 [1, 4]: 308 nM
SMILES: CCOC(=O)CCn1ncc2ccc(Nc3ncc(F)c(Nc4ccc5c(c4)NC(=O)C(C)(C)O5)n3)cc21 [Compound R935434]

IC50 [1, 4]: 71 nM
SMILES: Cc1cc(C)cc(Nc2ncc(F)c(Nc3ccc4c(c3)NC(=O)C(C)(C)O4)n2)c1 [Compound R927076]

IC50 [1, 4]: 2240 nM
SMILES: O=C(COc1cccc(Nc2ncc(F)c(NC3CCC3)n2)c1)NC1CCC1 [Compound R945396]

IC50 [1, 4]: 351 nM
SMILES: NCc1ccc(Nc2ncc(F)c(Nc3ccc4c(c3)NC(=O)C(F)(F)O4)n2)cc1 [Compound R950465]

IC50 [1, 4]: 217 nM
SMILES: NC(=O)c1ccc(Nc2ncc(F)c(Nc3ccc4c(c3)NC(=O)C(F)(F)O4)n2)cc1 [Compound R950455]

IC50 [1, 4]: > 10000 nM
SMILES: CC(C)(C)OC(=O)NC1CCOc2ccc(Nc3ncc(F)c(Nc4ccc(Cl)c(Cl)c4)n3)cc21 (racemic) [Compound R950433]

IC50 [1, 4]: 61 nM
SMILES: Cc1cc(Nc2ncc(F)c(Nc3ccc4c(c3)NC(=O)C(C)(C)O4)n2)cc(C)c1C [Compound R926994]

IC50 [1, 4]: 1150 nM
SMILES: COc1cc(Nc2ncc(F)c(Nc3ccc4c(c3)C(NC(=O)OC(C)(C)C)CCO4)n2)cc(OC)c1 (racemic) [Compound R950425]

IC50 [1, 5]: > 10000 nM
IC50 ([3]; Homo sapiens, Jurkat): > 10000 nM
SMILES: CCOC(=O)C=C1NN=C(c2cccc(Nc3nc(Cl)ncc3F)c2)O1 [Compound R926873]

IC50 [1, 4]: 393 nM
SMILES: COc1ccc(Nc2nc(Nc3ccc4cnn(CCCO)c4c3)ncc2F)cc1Cl [Compound R935407]

IC50 [1, 4]: > 10000 nM
SMILES: COC(=O)N1CCN(c2ccc(Nc3nc(NC4CC4)ncc3F)cc2)CC1 [Compound R945373]

IC50 [1, 4]: 2420 nM
SMILES: COc1cc(Nc2nc(Nc3ccc4c(c3)C(NC(=O)OC(C)(C)C)CCO4)ncc2F)cc(OC)c1 (racemic) [Compound R950432]

IC50 [1, 4]: 337 nM
SMILES: CNC(=O)CCn1ncc2ccc(Nc3ncc(F)c(Nc4ccc5c(c4)NC(=O)C(C)(C)O5)n3)cc21 [Compound R935435]

IC50 [1, 4]: 888 nM
SMILES: CC1Oc2ccc(Nc3nc(Nc4ccc5c(c4)C(N)CCO5)ncc3F)cc2NC1=O (mixture of isomers) [Compound R950438]
